Read-outs that look alike come from different tables or passages of the source.
Experiments:
ALK WT = ALK WT (Homo sapiens (Human), UniProt Q9UM73); conditions: read-out: ALK WT (IC50 μM); ALK enzyme, HTRF
Protocol: To measure the activity to inhibit ALK, each of the compounds prepared in examples listed in table 2 (2 μl) was loaded in a 384 well plate. Then, each of the compounds was mixed with anaplastic lymphoma kinase (ALK) enzyme (1 μl) and biotin conjugated peptide substrate (2 μl), followed by culture for 15 minutes. ATP solution (5 μl) was added thereto, followed by kinase reaction at room temperature for 30 minutes. […] Upon completion of the reaction, one hour culture was performed, followed by analysis using homogeneous time-resolved fluorescence (HTRF, Cisbio).

H3122 cells = experiment: Cytotoxicity in non-small cell lung cancer cell line H3122 (SRB); assay type: cell-based, human; conditions: H3122 cells, three days, SRB
Protocol: Particularly, 4,000 H3122 cells containing ALK enzyme were distributed in each well of a 96 well plate together with 100 μl of DMEM (Dulbecco's Modified Eagle's Medium). One day later, the compound of the present invention was added to each well at different concentrations of […]. DMSO (dimethylsulfoxide) was added to the well that was not loaded with the compound by the same amount as the compound. Three days after the addition of the compound, DMEM was eliminated. 10% TCA (trichloroacetic acid) was added to fix the cells. The wells were washed with running water three times and the live cells were stained with SRB solution (1 sulphorodamine B). Then, OD was measured to calculate the population of the live cells.

[1] = tested on: H3122 induced lung cancer; experiment: In vivo xenograft evaluation for H3122 induced lung cancer; parameters: species or system nude mice (BALB/c nu/nu); conditions: H3122 xenograft in nude mice, orally administered q.d.×14, FIG. 1
Excerpt: The nude mice (BALB/c nu/nu, female) used in this experiment were purchased from Charles River Japan, Inc. and raised and tested under SPF (Specific Pathogen Free) control. The human non-small cell lung cancer cell line H3122 maintained by Korea Research Institute of Chemical Technology was used in this experiment.
The female nude mice adapted to the laboratory were implanted with cancer. Particularly, H3122 cells grown to the appropriate size for passage were cut into 3×3×3 mm^3, which was transplanted (s.c.) under the right side of the nude mouse. When the size of the implanted cancer reached about 200 mm^3, administration of the compound of example 58 was started; this was the first day (day 1). For the control, 20% PEG 400+3% Tween 80 in DDW was orally administered. For the experimental group (7 mice/group), the compound was dissolved in the same solvent of the control, which was orally administered 14 times in total (q.d.×14). The size of the cancer was measured every 2-3 days after the administration using a caliper and the diameters (long diameter (a), short diameter (b)) of the cancer were measured. The size of the cancer (volume, V) was calculated according to mathematical formula 1. Volume (mm^3)=a×b^2/2 Mathematical Formula 1
(In the mathematical formula 1,
a represents the horizontal length of the cancer; and
b represents the vertical short length of the cancer).

Ba/F3 EML4-ALK WT cells = experiment: cells; assay type: cell-based, rodent; conditions: read-out: Ba/F3 EML-ALK WT (IC50 μM)
H2228 cells [2] = experiment: cells; conditions: Homo sapiens, NCI-H2228, 72 h, read-out: Cytotoxicity H2228 (GI50 μM), H2228 cells, three days, SRB
H2228 cells [3] = conditions: human, 3 days

ALK WT, sequence (Q9UM73 19-1620): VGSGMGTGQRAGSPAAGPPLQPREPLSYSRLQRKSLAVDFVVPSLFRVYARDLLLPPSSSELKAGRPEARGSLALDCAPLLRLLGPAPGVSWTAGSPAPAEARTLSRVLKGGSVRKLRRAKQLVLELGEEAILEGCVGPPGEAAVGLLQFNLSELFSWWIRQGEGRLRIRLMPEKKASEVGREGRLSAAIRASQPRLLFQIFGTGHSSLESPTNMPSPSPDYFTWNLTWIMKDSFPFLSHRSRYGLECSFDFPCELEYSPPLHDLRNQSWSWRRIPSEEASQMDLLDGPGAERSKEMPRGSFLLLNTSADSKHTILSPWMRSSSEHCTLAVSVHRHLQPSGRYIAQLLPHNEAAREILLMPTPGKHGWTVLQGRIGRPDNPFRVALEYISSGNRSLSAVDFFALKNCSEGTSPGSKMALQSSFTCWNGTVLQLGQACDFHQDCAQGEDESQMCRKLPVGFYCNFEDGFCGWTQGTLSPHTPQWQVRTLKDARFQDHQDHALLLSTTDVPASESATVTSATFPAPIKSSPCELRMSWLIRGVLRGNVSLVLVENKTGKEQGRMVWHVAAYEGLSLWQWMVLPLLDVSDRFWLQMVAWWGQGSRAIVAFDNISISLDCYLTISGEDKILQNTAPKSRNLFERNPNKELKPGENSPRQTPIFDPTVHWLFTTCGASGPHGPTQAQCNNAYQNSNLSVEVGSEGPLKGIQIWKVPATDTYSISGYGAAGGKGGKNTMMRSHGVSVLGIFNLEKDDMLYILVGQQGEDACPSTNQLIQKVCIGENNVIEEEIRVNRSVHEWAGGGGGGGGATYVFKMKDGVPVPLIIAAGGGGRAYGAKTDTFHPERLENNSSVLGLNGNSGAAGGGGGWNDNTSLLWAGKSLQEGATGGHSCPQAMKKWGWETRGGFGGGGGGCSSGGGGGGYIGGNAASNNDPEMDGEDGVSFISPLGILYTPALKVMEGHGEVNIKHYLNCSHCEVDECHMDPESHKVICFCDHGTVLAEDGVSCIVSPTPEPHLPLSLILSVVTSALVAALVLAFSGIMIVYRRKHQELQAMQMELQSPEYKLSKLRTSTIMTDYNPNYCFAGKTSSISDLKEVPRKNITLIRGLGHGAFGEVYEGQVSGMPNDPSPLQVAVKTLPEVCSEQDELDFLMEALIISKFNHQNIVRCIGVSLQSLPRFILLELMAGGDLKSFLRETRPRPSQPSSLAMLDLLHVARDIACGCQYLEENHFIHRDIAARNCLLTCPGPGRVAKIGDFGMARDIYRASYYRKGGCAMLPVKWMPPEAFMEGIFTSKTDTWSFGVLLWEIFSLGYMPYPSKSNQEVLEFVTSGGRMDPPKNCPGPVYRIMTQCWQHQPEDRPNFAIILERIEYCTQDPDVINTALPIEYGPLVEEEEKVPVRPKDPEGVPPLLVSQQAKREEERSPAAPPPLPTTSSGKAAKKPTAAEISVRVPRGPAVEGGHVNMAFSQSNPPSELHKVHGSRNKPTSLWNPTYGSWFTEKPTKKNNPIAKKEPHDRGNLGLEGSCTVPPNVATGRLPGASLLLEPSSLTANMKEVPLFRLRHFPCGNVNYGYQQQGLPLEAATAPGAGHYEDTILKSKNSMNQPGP

Row | SMILES | IC50 (ALK WT) | GI50 (H3122 cells; Homo sapiens, NCI-H3122, 72 h) | IC50 (Ba/F3 EML4-ALK WT cells; Ba/F3 EML4-ALK) | further results
1 | COc1cc(CCN)c(C)cc1Nc1ncc(Cl)c(Nc2ccccc2S(=O)(=O)C(C)C)n1 [Example 55, N2-(4-(2-aminoethyl)-2-methoxy-5-methylphenyl)-5-chloro-N4-(2-(isopropylsulfonyl)phenyl)pyrimidine-2,4-diamine] | 0.0027 µM | 0.06 µM | – | –
2 | Cc1cc(Nc2ncc(Cl)c(Nc3ccccc3S(=O)(=O)C(C)C)n2)c(OC(C)C)cc1C1CCNCC1 [LDK378, Ceritinib, reference compound] | – | – | – | size of the cancer (volume) [1]: the effect of inhibiting cancer size was excellent, similar to LDK378
3 | COc1cc(CN(C)C)c(C)cc1Nc1ncc(Cl)c(Nc2ccccc2S(=O)(=O)C(C)C)n1 [Example 70, 5-chloro-N2-(4-((dimethylamino)methyl)-2-methoxy-5-methylphenyl)-N4-(2-(isopropylsulfonyl)phenyl)pyrimidine-2,4-diamine] | – | 0.037 µM | 0.021 µM | –
4 | CNC(C)(C)c1cc(OC)c(Nc2ncc(Cl)c(Nc3ccccc3S(=O)(=O)C(C)C)n2)cc1C [Example 64, 5-chloro-N4-(2-(isopropylsulfonyl)phenyl)-N2-(2-methoxy-5-methyl-4-(2-(methylamino)propane-2-yl)phenyl)pyrimidine-2,4-diamine] | 0.0012 µM | 0.029 µM | 0.015 µM | –
5 | COC(=O)CCNCCc1ccc(OC)c(Nc2ncc(Cl)c(Nc3ccccc3S(=O)(=O)C(C)C)n2)c1 [Example 24, methyl 3-(3-(5-chloro-4-(2-(isopropylsulfonyl)phenylamino)pyrimidine-2-ylamino)-4-methoxyphenethylamino)propanoate] | – | ≤ 0.1 µM | – | GI50 (H3122 cells): 0.09 µM; GI50 (H2228 cells [2]): ≤ 1 µM; GI50 (H2228 cells [3]): 660 nM
6 | COc1cc(C(C)(C)N(C)C)c(C)cc1Nc1ncc(Cl)c(Nc2ccccc2S(=O)(=O)C(C)C)n1 [Example 66, 5-chloro-N2-(4-(2-(dimethylamino)propane-2-yl)-2-methoxy-5-methylphenyl)-N4-(2-(isopropylsulfonyl)phenyl)pyrimidine-2,4-diamine] | 0.0028 µM | 0.035 µM | – | –
7 | COc1cc(CCN(C)C)c(C)cc1Nc1ncc(Cl)c(Nc2ccccc2S(=O)(=O)C(C)C)n1 [Example 58, 5-chloro-N2-(4-(2-(dimethylamino)ethyl)-2-methoxy-5-methylphenyl)-N4-(2-(isopropylsulfonyl)phenyl)pyrimidine-2,4-diamine] | 0.0014 µM | 0.013 µM | 0.01 µM | size of the cancer (volume) [1]: the effect of inhibiting cancer size was excellent, similar to LDK378
8 | C=C(C)c1cc(OCC)c(Nc2ncc(Cl)c(Nc3ccccc3S(=O)(=O)C(C)C)n2)cc1CCN [Example 74, N2-(5-(2-aminoethyl)-2-ethoxy-4-(prop-1-ene-2-yl)phenyl)-5-chloro-N4-(2-(isopropylsulfonyl)phenyl)pyrimidine-2,4-diamine] | – | 0.77 µM | 0.36 µM | –
9 | CNCC(C)(C)c1cc(OC)c(Nc2ncc(Cl)c(Nc3ccccc3S(=O)(=O)C(C)C)n2)cc1C [Example 60, 5-chloro-N4-(2-(isopropylsulfonyl)phenyl)-N2-(2-methoxy-5-methyl-4-(2-methyl-1-(methylamino)propane-2-yl)phenyl)pyrimidine-2,4-diamine] | 0.0015 µM | 0.041 µM | 0.019 µM | –
10 | CNCCc1cc(OC)c(Nc2ncc(Cl)c(Nc3ccccc3S(=O)(=O)C(C)C)n2)cc1C [Example 63, 5-chloro-N4-(2-(isopropylsulfonyl)phenyl)-N2-(2-methoxy-5-methyl-4-(2-(methylamino)ethyl)phenyl)pyrimidine-2,4-diamine] | 0.0015 µM | 0.02 µM | – | –
11 | COc1cc(CCNC=O)c(C)cc1Nc1ncc(Cl)c(Nc2ccccc2S(=O)(=O)C(C)C)n1 [Example 62, N-(4-((5-chloro-4-((2-(isopropylsulfonyl)phenyl)amino)pyrimidine-2-yl)amino)-5-methoxy-2-methylphenethyl)formamide] | 0.004 µM | 0.068 µM | – | –
12 | COc1cc(C(C)(C)C#N)c(C)cc1Nc1ncc(Cl)c(Nc2ccccc2S(=O)(=O)C(C)C)n1 [Example 54, 2-(4-((5-chloro-4-((2-(isopropylsulfonyl)phenyl)amino)pyrimidine-2-yl)amino)-5-methoxy-2-methylphenyl)-2-methylpropanenitrile] | – | 0.25 µM | 0.25 µM | –
13 | COc1cc(CC#N)c(C)cc1Nc1ncc(Cl)c(Nc2ccccc2S(=O)(=O)C(C)C)n1 [Example 53, 2-(4-((5-chloro-4-((2-(isopropylsulfonyl)phenyl)amino)pyrimidine-2-yl)amino)-5-methoxy-2-methylphenyl)acetonitrile] | – | 0.074 µM | ≤ 0.1 µM | IC50 (Ba/F3 EML4-ALK WT cells): 0.061 µM
14 | COc1cc(C(C)(C)CNC=O)c(C)cc1Nc1ncc(Cl)c(Nc2ccccc2S(=O)(=O)C(C)C)n1 [Example 59, N-(2-(4-((5-chloro-4-((2-(isopropylsulfonyl)phenyl)amino)pyrimidine-2-yl)amino)-5-methoxy-2-methylphenyl)-2-methylpropyl)formamide] | 0.0078 µM | 0.063 µM | – | –
15 | COc1cc(C(C)(C)CN(C)C)c(C)cc1Nc1ncc(Cl)c(Nc2ccccc2S(=O)(=O)C(C)C)n1 [Example 65, 5-chloro-N2-(4-(1-(dimethylamino)-2-methylpropane-2-yl)-2-methoxy-5-methylphenyl)-N4-(2-(isopropylsulfonyl)phenyl)pyrimidine-2,4-diamine] | 0.0022 µM | 0.026 µM | 0.014 µM | –
16 | COc1cc(CNC=O)c(C)cc1Nc1ncc(Cl)c(Nc2ccccc2S(=O)(=O)C(C)C)n1 [Example 71, N-(4-((5-chloro-4-((2-(isopropylsulfonyl)phenyl)amino)pyrimidine-2-yl)amino)-5-methoxy-2-methylbenzyl)formamide] | – | – | 0.015 µM | –
17 | COc1cc(C(C)(C)NC=O)c(C)cc1Nc1ncc(Cl)c(Nc2ccccc2S(=O)(=O)C(C)C)n1 [Example 61, N-(2-(4-((5-chloro-4-((2-(isopropylsulfonyl)phenyl)amino)pyrimidine-2-yl)amino)-5-methoxy-2-methylphenyl)propane-2-yl)formamide] | – | 0.052 µM | 0.024 µM | –
18 | C=C(C)c1cc(OC)c(Nc2ncc(Cl)c(Nc3ccccc3S(=O)(=O)C(C)C)n2)cc1CCN [Example 75, N2-(5-(2-aminoethyl)-2-methoxy-4-(prop-1-ene-2-yl)phenyl)-5-chloro-N4-(2-(isopropylsulfonyl)phenyl)pyrimidine-2,4-diamine] | – | 0.23 µM | 0.11 µM | –
19 | CNCc1cc(OC)c(Nc2ncc(Cl)c(Nc3ccccc3S(=O)(=O)C(C)C)n2)cc1C [Example 72, 5-chloro-N4-(2-(isopropylsulfonyl)phenyl)-N2-(2-methoxy-5-methyl-4-((methylamino)methyl)phenyl)pyrimidine-2,4-diamine] | 0.00174 µM | 0.025 µM | 0.015 µM | –
20 | COc1cc(C(C)(C)CN)c(C)cc1Nc1ncc(Cl)c(Nc2ccccc2S(=O)(=O)C(C)C)n1 [Example 56, N2-(4-(1-amino-2-methylpropane-2-yl)-2-methoxy-5-methylphenyl)-5-chloro-N4-(2-(isopropylsulfonyl)phenyl)pyrimidine-2,4-diamine] | 0.0049 µM | 0.053 µM | – | –
21 | COc1ccc(CCNC(C)=O)cc1Nc1ncc(Cl)c(Nc2ccccc2S(=O)(=O)C(C)C)n1 [Example 7, N-(3-(5-chloro-4-(2-(isopropylsulfonyl)phenylamino)pyrimidine-2-ylamino)-4-methoxyphenethyl)acetamide] | – | 0.79 µM | – | GI50 (H2228 cells [2]): 0.8 µM
22 | COc1ccc(CN)cc1Nc1ncc(Cl)c(Nc2ccccc2S(=O)(=O)C(C)C)n1 [Example 29, N2-(5-(aminomethyl)-2-methoxyphenyl)-5-chloro-N4-(2-(isopropylsulfonyl)phenyl)pyrimidine-2,4-diamine] | – | 0.1 µM | – | GI50 (H2228 cells [2]): 0.14 µM
23 | COc1cc(-c2ccccc2)c(CCN)cc1Nc1ncc(Cl)c(Nc2ccccc2S(=O)(=O)C(C)C)n1 [Example 67] | – | 0.23 µM | 0.11 µM | –
